# Experimental data as given in patent US4828979A, “Nucleotide analogs for nucleic acid labeling and detection” (Life Technologies, Inc., priority 1984, dated 1989).
# Like-named read-outs stand apart in the source and are kept apart here.
# Assays:
# [1] = test system: streptavidin-biotin alkaline phosphatase system; experiment: Sensitivity of detection of probes biotinylated with various linker lengths, spotted on nitrocellulose
# Experimental: (§1) The reaction volume was 1 ml. At 10 minutes, 30 minutes and 90 minutes, 200 μl of the reaction mixture was removed and the reaction quenched with 30 mM EDTA. The DNA from each sample was purified on a Sephade® G-50 column. […] In Table 2, "+" or "-" indicates the presence or absence, respectively of visible spots; it can be seen that a high degree of sensitivity exists even with a relatively low level of biotin incorporation.
# Probes biotinylated with various linker lengths were then compared for sensitivity of detection. Plasmid DNA was nick translated according to the described protocol with Biotin-n-dATP, for n=7, 14, 3 or 10. The biotinylated DNA's were then purified from unincorporated nucleotides by gel filtration on Sephadex® G-50 in 1×SSC (0.15 M NaCl, 0.015 M sodium citrate) containing 0.1% SDS. The biotinylated DNA was diluted into 6×SSC containing 0.2 μg/μl sheared herring sperm DNA and spotted onto nitrocellulose paper in the range of 50 pg/5 μl to 1 pg/5 μl. After 30 minutes' incubation in the NBT/BCIP dye mixture of the BRL DNA Detection System, 2 pg spots of Bio-7, 14 or 10-dATP labeled probe and a 5 pg spot of Bio-3-dATP labeled probe were visible. After 1.5 hours, the 1 pg spot of each biotin-dATP-labeled probe was visible.
# [2] = molecular target: T1, DNA polymerase I (Escherichia coli, UniProt P00582); experiment: Incorporation of dATP/dCTP and analogs into plasmid DNA by nick translation (3H-dGTP tracer); format: biochemical, E. coli; conditions: 1.5 h, tracer 3H-dGTP incorporation relative to reaction mixture containing dNTP's and no derivatives, duplicate figures = two determinations
# T1 construct: purchased BRL (Nick Translation System)
# T1 sequence (P00582 whole entry): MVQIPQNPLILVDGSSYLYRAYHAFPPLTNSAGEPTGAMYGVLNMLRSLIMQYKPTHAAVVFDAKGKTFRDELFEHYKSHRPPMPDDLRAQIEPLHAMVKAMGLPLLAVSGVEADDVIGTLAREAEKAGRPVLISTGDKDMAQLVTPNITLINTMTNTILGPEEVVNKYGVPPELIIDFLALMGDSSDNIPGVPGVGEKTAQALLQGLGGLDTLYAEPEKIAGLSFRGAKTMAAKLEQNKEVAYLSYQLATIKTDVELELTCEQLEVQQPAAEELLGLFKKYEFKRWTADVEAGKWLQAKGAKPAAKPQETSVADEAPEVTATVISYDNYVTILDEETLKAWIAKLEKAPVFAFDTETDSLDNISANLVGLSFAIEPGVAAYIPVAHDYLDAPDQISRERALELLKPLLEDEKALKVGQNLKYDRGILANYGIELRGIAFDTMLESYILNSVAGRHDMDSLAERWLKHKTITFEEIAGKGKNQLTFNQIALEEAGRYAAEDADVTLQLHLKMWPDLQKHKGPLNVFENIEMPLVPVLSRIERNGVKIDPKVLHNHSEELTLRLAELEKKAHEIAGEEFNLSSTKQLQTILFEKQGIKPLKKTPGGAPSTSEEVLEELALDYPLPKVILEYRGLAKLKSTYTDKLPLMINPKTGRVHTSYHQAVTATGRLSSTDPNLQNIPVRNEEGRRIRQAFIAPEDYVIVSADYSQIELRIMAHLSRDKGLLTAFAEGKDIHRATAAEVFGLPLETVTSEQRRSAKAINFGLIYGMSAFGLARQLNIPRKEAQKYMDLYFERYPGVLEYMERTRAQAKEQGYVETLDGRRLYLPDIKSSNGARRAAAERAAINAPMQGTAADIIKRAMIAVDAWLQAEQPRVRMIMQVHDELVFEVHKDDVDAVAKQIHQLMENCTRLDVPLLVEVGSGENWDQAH
# Experimental: Incorporation into Plasmid DNA of Biotinylated dATP Derivatives
# The time course and levels of incorporation were studied as a function of linker size.
# (§2) Using the BRL Nick Translation System, dATP and various derivatives were incorporated into plasmid DNA.
# (§3) At each time point of interest, 2 μl from the reaction mixture was withdrawn, spotted on glass fiber filters (GF/C), washed in 10% trichloroacetic acid (TCA) once and 5% TCA twice, and dried after washing in alcohol. The filters were counted in a liquid scintillation counter.
# The relative levels of incorporation of the modified nucleotides at the 90 minute time point are seen in Table 1 below, in which the data are reported as percent incorporation of the tracer radio-nucleotide (^3 H-dGTP) relative to incorporation resulting from a reaction mixture containing dNTP's and no derivatives. Duplicate figures indicate two determinations. Results for dCTP and analogs appear also.
# [3] = test system: human β-globin gene; experiment: Detection of single-copy gene sequence in Southern blot of Eco RI digested human DNA; conditions: NBT/BCIP dye system; probe 100 ng/ml, hybridization 16-24 hours
# Experimental: A plasmid containing the 1.1 Kb Mst II fragment of the human β-globin gene in the Eco RI site of pBR322 (obtained from Dr. Y. W. Kan, UCSF) was nick translated with either Biotin-n-dATP in the presence of dTTP, dCTP, and dGTP, or Biotin-n-dCTP in the presence of dATP, dTTP, and dGTP. All nucleotides were at 20 μM and the reaction was allowed to proceed for 90 minutes. Conditions for nick translation of the DNA probe and purification of the biotin-labeled material are given in the manual of the BRL DNA Detection System.
# The biotinylated probe was hybridizedto a Southern blot of Eco RI digested human DNA or to an Eco RI digest of the plasmid DNA. Probe concentration was 100 ng/ml and hybridization was allowed to proceed for 16-24 hours under conditions described by Leary et al. (Leary, J. J., Brigati, D. J. and Ward, D. C. (1983) Proc. Natl. Acad. Sci. USA 80 4045-4049). The filter was developed with the BRL Detection System as described in the system's instruction manual. The single copy β-globin gene Fragment at 5.2 Kb was observed within 3 hours of staining with the NBT/BCIP dye system for DNA probes labeled with Biotin-n-dATP where n=3, 7, 10 or 14 and Biotin-n-dCTP where n=7 or 10.
# [4] = molecular target: T1, DNA polymerase I; experiment: Incorporation using radiolabelled biotin-nucleotide (32P-dCTP and 3H-biotin); format: biochemical, E. coli; conditions: 20 μM [3H-biotin]-7-dATP; FIG. 6
# Experimental: as §2, §3
# Using the same protocol, incorporation was then performed using a radiolabelled biotin-nucleotide. Thus, the level of biotin incorporation was directly determined. 200 μl of the reaction mixture contained 10 μCi of α-^32 PdCTP and either 20 μM dATP or 20 μM [^3 H-biotin]-7-dATP. […] The lower curves show the time courses of incorporation of ^32 P-dCMP and the tritium labelled and biotinylated derivative of dAMP.
# [5] = molecular target: T1, DNA polymerase I; experiment: Incorporation of various levels of Bio-7-dATP into plasmid DNA by nick translation; format: biochemical, E. coli
# Experimental: as §2
# To examine the detection sensitivity of probes made from the biotinylated nucleotides of the present invention, incorporation of various levels of Bio-7-dATP into plasmid DNA was carried out by nick translation as previously disclosed.
# as §1
# [6] = after 30 minutes' incubation in NBT/BCIP dye mixture
# [7] = 90 min, 15° C., read-out: % Incorporation (90 min.)
Compound,"spot of labeled probe visible (sensitivity) [1, 6] [pg]","activity at 20 µM [2, 7] [%]",time of staining within which single copy β-globin gene fragment at 5.2 Kb was observed [3] [h],also measured
O=C(CCCC[C@@H]1SC[C@@H]2NC(=O)N[C@@H]21)NCCNc1ncnc2c1ncn2[C@H]1C[C@H](O)[C@@H](COP(=O)(O)OP(=O)(O)OP(=O)(O)O)O1 [Biotin-3-dATP],5,29,≤ 3,
O=C(CCCC[C@@H]1SC[C@@H]2NC(=O)N[C@@H]21)NCCNc1ccn([C@H]2C[C@H](O)[C@@H](COP(=O)(O)OP(=O)(O)OP(=O)(O)O)O2)c(=O)n1 [Biotin-3-dCTP],,12,,
"O=C(CCCC[C@@H]1SC[C@@H]2NC(=O)N[C@@H]21)NCCCCCCNc1ncnc2c1ncn2[C@H]1C[C@H](O)[C@@H](COP(=O)(O)OP(=O)(O)OP(=O)(O)O)O1 [Biotin-7-dATP, N^6-(6-hexylamidobiotin)-2'-deoxyadenosine 5'-triphosphate]",2,53,≤ 3,
O=C(CCCC[C@@H]1SC[C@@H]2NC(=O)N[C@@H]21)NCCCCCCNc1ccn([C@H]2C[C@H](O)[C@@H](COP(=O)(O)OP(=O)(O)OP(=O)(O)O)O2)c(=O)n1 [Biotin-7-dCTP],,44,≤ 3,
O=C(CCCC[C@@H]1SC[C@@H]2NC(=O)N[C@@H]21)NCCCCCCNC(=O)CNc1ncnc2c1ncn2[C@H]1C[C@H](O)[C@@H](COP(=O)(O)OP(=O)(O)OP(=O)(O)O)O1 [Biotin-10'-dATP],,6.9,,
O=C(CCCC[C@@H]1SC[C@@H]2NC(=O)N[C@@H]21)NCCCCCC(=O)NCCNc1ncnc2c1ncn2[C@H]1C[C@H](O)[C@@H](COP(=O)(O)OP(=O)(O)OP(=O)(O)O)O1 [Biotin-10-dATP],2,15,≤ 3,
O=C(CCCC[C@@H]1SC[C@@H]2NC(=O)N[C@@H]21)NCCCCCC(=O)NCCNc1ccn([C@H]2C[C@H](O)[C@@H](COP(=O)(O)OP(=O)(O)OP(=O)(O)O)O2)c(=O)n1 [Biotin-10-dCTP],2,22,≤ 3,spot of labeled probe visible (sensitivity) ([1]; after 1.5 hours in NBT/BCIP dye mixture): 1 pg
O=C(CCCCCNC(=O)CCCC[C@@H]1SC[C@@H]2NC(=O)N[C@@H]21)NCCCCCCNc1ncnc2c1ncn2[C@H]1C[C@H](O)[C@@H](COP(=O)(O)OP(=O)(O)OP(=O)(O)O)O1 [Biotin-14-dATP],2,33,≤ 3,
O=C(CCCCCNC(=O)CCCC[C@@H]1SC[C@@H]2NC(=O)N[C@@H]21)NCCCCCCNc1ccn([C@H]2C[C@H](O)[C@@H](COP(=O)(O)OP(=O)(O)OP(=O)(O)O)O2)c(=O)n1 [Biotin-14-dCTP],,42,,
O=C(CCCCCNC(=O)CCCC[C@@H]1SC[C@@H]2NC(=O)N[C@@H]21)NCCCCCCNC(=O)CNc1ncnc2c1ncn2[C@H]1C[C@H](O)[C@@H](COP(=O)(O)OP(=O)(O)OP(=O)(O)O)O1 [Biotin-17-dATP],,6.7,,
"NCCCCCCNc1ccn([C@H]2C[C@H](O)[C@@H](COP(=O)(O)OP(=O)(O)OP(=O)(O)O)O2)c(=O)n1 [N^4 --(6-aminohexyl)dCTP, N^4-(6-aminohexyl)dCTP]",,74,,
"NCCCCCCNc1ncnc2c1ncn2[C@H]1C[C@H](O)[C@@H](COP(=O)(O)OP(=O)(O)OP(=O)(O)O)O1 [N^6 --aminohexyldATP, N^6-(6-aminohexyl)dATP]",,,,"activity at 20 µM ([2]; read-out: % Incorporation (90 min.), 90 min, 15° C.): 67%"
O=C(CCCC[C@@H]1SC[C@@H]2NC(=O)N[C@@H]21)NCCCCCCNc1ncnc2c1ncn2[C@H]1C[C@H](O)[C@@H](COP(=O)(O)OP(=O)(O)OP(=O)(O)O)O1 [[^3 H-biotin]-7-dATP],,,,correspondence of time courses of incorporation of 32P-dCMP and the tritium labelled and biotinylated derivative of dAMP [4]: close correspondence
"Nc1ncnc2c1ncn2[C@H]1C[C@H](O)[C@@H](COP(=O)(O)OP(=O)(O)OP(=O)(O)O)O1 [dATP, reference compound]",,100,,
"Nc1ccn([C@H]2C[C@H](O)[C@@H](COP(=O)(O)OP(=O)(O)OP(=O)(O)O)O2)c(=O)n1 [dCTP, reference compound]",,100,,
N^6 -(6-hexylamidobiotin-2'-deoxyadenosine 5'-monophosphate [Bio-7-dAMP],,,,Bio-7-dAMP per Kb ([5]; 10 min nick translation): 7 per Kb; Bio-7-dAMP per Kb ([5]; 30 min nick translation): 35 per Kb; Bio-7-dAMP per Kb ([5]; 90 min nick translation): 98 per Kb
